Laboratory results reported in ChEMBL document CHEMBL5465560, “Selectivity Literature for EUbOPEN Chemogenomic Library” (2024).
Each block holds one compound with its values, some of them ahead of it.

Experiments:
[1] = biological target: Substance-P receptor (Homo sapiens) (UniProt P25103); assay: Selectivity interaction (Eurofins CEREP Diversity Profile (receptors and ion channels)) EUB0000279b TACR1; conditions: at 10 µM
[2] = biological target: T1, Aurora kinase A (Homo sapiens) (UniProt O14965); assay: Selectivity interaction (KinomeScan (DiscoverX)) EUB0000666a STK6; conditions: at 10 µM
T1 sequence (whole entry): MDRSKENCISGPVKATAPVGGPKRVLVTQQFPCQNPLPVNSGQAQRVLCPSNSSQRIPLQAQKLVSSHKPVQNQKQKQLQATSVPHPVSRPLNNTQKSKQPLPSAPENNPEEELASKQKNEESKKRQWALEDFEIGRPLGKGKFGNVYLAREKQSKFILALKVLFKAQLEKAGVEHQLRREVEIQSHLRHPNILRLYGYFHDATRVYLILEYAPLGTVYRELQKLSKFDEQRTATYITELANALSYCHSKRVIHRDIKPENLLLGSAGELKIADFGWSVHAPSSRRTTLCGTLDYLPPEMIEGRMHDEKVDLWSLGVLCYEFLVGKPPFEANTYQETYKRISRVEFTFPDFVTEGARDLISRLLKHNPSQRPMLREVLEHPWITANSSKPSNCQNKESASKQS

[3] = biological target: T2, Mitogen-activated protein kinase kinase kinase 3 (Homo sapiens) (UniProt Q99759); assay: Selectivity interaction (KinomeScan (DiscoverX)) EUB0000607a MAP3K3; conditions: at 10 µM
T2 sequence (whole entry): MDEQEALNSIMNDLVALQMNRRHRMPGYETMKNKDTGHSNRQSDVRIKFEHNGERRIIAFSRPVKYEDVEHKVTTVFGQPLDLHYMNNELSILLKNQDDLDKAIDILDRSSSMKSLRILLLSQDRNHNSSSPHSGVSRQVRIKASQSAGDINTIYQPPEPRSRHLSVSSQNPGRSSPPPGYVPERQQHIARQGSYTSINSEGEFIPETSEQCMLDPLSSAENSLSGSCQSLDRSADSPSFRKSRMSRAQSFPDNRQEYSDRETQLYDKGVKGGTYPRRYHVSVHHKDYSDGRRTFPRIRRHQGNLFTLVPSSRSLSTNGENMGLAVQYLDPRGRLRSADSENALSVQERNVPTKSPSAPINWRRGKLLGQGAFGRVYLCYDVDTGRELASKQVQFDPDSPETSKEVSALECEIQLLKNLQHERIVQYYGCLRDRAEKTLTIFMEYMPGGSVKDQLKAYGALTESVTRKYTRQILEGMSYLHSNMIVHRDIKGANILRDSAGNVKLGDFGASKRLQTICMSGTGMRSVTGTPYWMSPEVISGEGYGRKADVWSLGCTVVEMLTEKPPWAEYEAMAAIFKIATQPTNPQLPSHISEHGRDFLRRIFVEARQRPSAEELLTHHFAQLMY

[4] = biological target: STE20-like serine/threonine-protein kinase (Homo sapiens, UniProt Q9H2G2); assay: Selectivity interaction (ActivX KiNativ screen (kinase selectivity in THP-1 cell lysates)) EUB0000639a SLK; assay type: subcellular; conditions: lysate, at 5 µM
STE20-like serine/threonine-protein kinase, sequence (Q9H2G2 whole entry, looked up): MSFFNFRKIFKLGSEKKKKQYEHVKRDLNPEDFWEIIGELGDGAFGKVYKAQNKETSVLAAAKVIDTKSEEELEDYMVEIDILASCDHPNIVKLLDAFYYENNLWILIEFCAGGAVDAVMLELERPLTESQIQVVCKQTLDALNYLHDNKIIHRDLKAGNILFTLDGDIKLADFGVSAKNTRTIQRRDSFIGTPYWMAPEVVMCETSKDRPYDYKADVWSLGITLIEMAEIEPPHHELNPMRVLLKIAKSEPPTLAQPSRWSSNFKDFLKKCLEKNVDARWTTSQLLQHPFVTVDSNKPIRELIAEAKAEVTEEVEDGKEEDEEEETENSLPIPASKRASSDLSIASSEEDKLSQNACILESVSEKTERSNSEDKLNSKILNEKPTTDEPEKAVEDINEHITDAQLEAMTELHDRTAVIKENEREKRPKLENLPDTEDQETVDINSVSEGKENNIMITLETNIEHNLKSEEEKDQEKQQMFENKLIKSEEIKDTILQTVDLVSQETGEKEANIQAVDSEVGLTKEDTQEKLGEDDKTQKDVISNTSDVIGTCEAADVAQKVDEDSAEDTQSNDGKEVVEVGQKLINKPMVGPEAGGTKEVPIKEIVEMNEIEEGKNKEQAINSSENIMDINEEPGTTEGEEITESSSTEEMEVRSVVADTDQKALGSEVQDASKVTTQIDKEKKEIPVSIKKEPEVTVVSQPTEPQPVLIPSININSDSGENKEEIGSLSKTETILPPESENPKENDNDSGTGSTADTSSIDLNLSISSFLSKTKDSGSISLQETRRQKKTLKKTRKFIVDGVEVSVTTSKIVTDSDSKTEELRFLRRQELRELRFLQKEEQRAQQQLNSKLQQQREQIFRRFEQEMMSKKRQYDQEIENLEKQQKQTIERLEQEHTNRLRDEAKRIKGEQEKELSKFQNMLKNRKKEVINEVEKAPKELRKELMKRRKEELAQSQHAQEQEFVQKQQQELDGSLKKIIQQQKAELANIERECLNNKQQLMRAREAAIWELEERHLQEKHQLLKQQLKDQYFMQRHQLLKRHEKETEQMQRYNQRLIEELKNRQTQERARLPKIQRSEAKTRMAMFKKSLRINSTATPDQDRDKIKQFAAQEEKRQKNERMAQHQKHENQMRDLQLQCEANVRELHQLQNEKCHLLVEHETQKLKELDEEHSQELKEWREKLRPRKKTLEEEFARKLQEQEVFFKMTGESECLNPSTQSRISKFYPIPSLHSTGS

[5] = biological target: Calcium/calmodulin-dependent protein kinase kinase 2 (Homo sapiens) (UniProt Q96RR4); assay: Selectivity interaction (ActivX KiNativ screen (kinase selectivity in THP-1 cell lysates)) EUB0000639a CAMKK2; assay type: subcellular; conditions: lysate, at 0.2 µM
[6] = biological target: Citron Rho-interacting kinase (Homo sapiens) (UniProt O14578); assay: Selectivity interaction (KinomeScan (DiscoverX)) EUB0001049a CIT; conditions: at 1 µM
Citron Rho-interacting kinase (Homo sapiens), sequence (O14578 whole entry): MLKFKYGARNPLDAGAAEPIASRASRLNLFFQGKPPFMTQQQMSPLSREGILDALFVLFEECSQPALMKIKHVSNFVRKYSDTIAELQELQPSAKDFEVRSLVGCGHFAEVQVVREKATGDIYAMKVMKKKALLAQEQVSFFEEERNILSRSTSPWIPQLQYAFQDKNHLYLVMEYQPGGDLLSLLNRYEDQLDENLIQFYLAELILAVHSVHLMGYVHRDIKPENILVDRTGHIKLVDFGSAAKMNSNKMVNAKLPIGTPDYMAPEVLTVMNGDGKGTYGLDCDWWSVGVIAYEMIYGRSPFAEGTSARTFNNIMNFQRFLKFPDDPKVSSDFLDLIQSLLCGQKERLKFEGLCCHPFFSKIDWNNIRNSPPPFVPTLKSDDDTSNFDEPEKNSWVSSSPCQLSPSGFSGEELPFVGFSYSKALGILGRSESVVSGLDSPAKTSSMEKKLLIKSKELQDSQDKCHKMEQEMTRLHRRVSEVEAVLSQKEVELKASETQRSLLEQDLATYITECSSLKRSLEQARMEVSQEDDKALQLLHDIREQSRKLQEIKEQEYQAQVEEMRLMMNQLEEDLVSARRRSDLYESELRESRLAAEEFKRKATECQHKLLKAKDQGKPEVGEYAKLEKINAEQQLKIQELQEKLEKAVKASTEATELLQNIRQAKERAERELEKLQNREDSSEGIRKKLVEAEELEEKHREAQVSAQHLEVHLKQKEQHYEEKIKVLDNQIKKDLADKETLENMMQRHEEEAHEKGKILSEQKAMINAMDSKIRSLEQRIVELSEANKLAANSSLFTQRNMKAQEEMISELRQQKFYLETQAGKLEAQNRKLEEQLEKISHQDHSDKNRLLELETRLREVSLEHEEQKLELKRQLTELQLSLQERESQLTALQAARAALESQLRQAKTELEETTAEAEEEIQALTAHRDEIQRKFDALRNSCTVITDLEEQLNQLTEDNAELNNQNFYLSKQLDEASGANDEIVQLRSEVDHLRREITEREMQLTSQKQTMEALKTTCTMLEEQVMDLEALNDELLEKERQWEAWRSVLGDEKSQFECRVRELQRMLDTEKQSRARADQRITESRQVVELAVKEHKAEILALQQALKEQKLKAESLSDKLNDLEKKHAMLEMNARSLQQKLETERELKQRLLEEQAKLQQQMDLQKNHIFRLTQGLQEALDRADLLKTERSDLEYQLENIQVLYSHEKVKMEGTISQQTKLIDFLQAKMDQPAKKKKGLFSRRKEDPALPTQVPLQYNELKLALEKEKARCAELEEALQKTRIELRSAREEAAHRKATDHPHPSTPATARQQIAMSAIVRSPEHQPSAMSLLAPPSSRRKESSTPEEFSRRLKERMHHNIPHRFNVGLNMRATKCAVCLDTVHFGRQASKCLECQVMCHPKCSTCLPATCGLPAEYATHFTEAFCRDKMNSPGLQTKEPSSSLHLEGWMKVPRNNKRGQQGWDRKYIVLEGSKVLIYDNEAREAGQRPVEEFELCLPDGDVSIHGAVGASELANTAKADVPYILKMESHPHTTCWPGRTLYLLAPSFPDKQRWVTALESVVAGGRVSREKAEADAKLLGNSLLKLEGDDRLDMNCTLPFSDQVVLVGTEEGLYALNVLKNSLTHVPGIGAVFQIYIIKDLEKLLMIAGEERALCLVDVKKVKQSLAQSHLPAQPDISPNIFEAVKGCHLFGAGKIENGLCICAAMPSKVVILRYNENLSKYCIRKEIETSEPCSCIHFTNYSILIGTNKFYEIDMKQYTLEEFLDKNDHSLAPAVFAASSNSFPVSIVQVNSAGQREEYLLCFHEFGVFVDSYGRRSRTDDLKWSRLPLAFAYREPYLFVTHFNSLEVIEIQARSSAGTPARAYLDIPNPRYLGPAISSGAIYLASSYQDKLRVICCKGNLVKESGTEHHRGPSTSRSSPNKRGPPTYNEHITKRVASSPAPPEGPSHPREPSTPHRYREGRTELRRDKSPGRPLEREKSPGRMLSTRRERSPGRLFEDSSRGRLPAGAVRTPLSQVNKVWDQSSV

[7] = biological target: G protein-coupled receptor kinase 4 (Homo sapiens) (UniProt P32298); assay: Selectivity interaction (KinomeScan (DiscoverX)) EUB0000045b GRK4
G protein-coupled receptor kinase 4 (Homo sapiens), sequence (P32298 whole entry, looked up, the tested form may be a part): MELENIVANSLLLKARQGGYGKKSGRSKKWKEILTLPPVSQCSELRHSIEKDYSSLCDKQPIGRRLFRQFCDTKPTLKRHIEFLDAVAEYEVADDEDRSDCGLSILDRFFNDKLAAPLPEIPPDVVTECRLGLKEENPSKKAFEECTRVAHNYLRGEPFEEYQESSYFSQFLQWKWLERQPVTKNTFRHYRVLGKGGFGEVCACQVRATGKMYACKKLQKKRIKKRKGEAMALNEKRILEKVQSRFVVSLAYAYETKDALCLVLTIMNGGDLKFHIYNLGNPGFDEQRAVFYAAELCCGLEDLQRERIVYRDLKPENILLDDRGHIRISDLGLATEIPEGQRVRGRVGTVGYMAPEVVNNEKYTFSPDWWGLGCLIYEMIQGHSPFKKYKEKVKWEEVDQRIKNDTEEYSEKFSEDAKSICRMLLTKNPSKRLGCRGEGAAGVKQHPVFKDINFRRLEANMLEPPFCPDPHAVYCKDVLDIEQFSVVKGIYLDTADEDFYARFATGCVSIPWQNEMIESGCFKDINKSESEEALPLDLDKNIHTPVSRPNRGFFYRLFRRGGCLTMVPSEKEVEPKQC

Peregrin (Homo sapiens) = biological target: T3, Peregrin (Homo sapiens) (UniProt P55201); assay: Selectivity interaction (PWWP, WD40, and Tudor domain panel (DSLS measurements, literature)) EUB0000270b BRPF1
T3 sequence (whole entry): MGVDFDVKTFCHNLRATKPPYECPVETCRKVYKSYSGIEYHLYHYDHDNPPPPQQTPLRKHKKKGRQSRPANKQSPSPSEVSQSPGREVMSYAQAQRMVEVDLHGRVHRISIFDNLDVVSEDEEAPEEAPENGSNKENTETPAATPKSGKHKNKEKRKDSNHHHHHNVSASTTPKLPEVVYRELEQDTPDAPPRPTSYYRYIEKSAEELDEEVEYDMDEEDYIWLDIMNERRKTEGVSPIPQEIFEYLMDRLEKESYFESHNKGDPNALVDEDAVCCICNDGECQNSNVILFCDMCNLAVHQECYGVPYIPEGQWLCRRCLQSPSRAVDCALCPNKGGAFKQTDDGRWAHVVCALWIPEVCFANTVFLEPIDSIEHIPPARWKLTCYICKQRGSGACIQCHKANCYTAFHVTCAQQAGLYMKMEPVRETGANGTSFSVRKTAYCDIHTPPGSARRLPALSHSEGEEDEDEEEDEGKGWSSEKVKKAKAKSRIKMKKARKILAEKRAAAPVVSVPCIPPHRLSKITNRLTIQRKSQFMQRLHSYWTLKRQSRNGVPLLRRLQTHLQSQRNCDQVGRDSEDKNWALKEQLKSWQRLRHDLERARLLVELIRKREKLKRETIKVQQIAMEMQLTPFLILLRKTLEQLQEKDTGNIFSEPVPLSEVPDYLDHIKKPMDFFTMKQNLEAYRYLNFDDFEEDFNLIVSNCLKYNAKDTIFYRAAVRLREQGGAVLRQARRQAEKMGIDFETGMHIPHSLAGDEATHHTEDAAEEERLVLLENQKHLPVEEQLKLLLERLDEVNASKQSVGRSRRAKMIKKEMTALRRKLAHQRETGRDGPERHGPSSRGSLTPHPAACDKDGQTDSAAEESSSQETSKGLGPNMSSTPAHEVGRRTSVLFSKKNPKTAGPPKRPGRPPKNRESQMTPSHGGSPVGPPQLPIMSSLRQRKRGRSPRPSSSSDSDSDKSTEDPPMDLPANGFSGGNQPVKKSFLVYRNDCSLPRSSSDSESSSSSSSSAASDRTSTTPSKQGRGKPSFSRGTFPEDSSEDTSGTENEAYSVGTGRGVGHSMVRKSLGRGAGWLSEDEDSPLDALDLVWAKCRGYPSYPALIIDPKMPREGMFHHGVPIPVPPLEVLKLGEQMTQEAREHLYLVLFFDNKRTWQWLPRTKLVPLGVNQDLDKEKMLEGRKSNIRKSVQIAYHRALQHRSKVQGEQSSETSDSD

[8] = biological target: Dual specificity protein kinase CLK2 (Homo sapiens, UniProt P49760); assay: Selectivity interaction (KinomeScan (DiscoverX)) EUB0000092b CLK2; conditions: at 10 µM
Dual specificity protein kinase CLK2, sequence (P49760 whole entry, looked up, canonical isoform): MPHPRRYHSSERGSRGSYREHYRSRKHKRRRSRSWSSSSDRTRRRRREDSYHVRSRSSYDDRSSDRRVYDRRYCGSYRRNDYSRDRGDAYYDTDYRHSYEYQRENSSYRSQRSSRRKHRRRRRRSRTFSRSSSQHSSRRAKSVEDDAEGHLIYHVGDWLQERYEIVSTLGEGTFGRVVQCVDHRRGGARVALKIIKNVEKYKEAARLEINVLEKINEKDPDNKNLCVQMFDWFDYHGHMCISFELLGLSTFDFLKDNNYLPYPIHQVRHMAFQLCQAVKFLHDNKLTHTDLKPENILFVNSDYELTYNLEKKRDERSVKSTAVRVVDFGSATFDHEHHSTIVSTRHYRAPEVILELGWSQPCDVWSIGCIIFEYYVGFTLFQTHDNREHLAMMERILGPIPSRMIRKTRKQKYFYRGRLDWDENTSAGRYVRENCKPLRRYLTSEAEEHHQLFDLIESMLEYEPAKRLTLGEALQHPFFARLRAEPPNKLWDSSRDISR

[9] = biological target: Casein kinase I isoform delta (Homo sapiens, UniProt P48730); assay: Selectivity interaction (KinomeScan (DiscoverX)) EUB0001619a CSNK1D; conditions: at 1 µM

Substance-P receptor (Homo sapiens), sequence (P25103 whole entry): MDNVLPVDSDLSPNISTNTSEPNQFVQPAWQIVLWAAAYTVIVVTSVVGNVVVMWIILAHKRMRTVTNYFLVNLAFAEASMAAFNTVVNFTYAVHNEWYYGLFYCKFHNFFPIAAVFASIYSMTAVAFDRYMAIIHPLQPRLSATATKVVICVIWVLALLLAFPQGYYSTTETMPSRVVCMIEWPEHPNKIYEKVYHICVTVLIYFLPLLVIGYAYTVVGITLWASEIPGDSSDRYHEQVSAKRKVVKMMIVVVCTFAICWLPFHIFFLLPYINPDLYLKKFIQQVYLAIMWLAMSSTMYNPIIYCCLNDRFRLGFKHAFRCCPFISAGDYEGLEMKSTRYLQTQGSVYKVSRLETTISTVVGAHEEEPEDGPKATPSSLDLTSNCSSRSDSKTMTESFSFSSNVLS

% of control [1]: 72%
Structure (SMILES): CC(=O)c1cc(-c2ccccc2OCC2CC2)c2ncccn12

Structure (SMILES): O=C(NOC[C@H](O)CO)c1ccc(F)c(F)c1Nc1ccc(I)cc1F
% of control [2]: 100%

Structure (SMILES): CNC(=O)Nc1ccc(-c2nc(N3CC4CCC(C3)O4)c3cnn(C4CCC5(CC4)OCCO5)c3n2)cc1
% of control [3]: 100%

% of inhibition [4]: -0.8%
% of inhibition [5]: -5.9%
Structure (SMILES): CC[C@@H]1[C@H](F)C(=O)N[C@@H]1COc1nccc2cc(C(N)=O)c(OC)cc12 [ZIMLOVISERTIB]

Structure (SMILES): COc1cc(Nc2nc(C)cc(-c3cnn4nc(OC)ccc34)n2)cc(C(F)(F)F)c1
% of control [6]: 100%

Structure (SMILES): C=CC(=O)Nc1cc(-n2c(=O)ccc3cnc4ccc(-c5ccc(NS(C)(=O)=O)cc5)cc4c32)ccc1C
% of control ([7]; at 1 µM): 100%
% of control ([7]; at 10 µM): 66%

dTagg (Peregrin (Homo sapiens)): 0 K
Structure (SMILES): Cc1cc(CN)cc(C)c1-c1ncn(C)c1-c1cncn1C

Structure (SMILES): CCC(=O)N1CCN(c2ccc(-n3c(=O)ccc4cnc5ccc(-c6cnc7ccccc7c6)cc5c43)cc2C(F)(F)F)CC1
% of control [8]: 65%

Structure (SMILES): N#Cc1cccc(-c2c[nH]c3ncnc(N4CCOCC4)c23)c1
% of control [9]: 100%
